No end group written: not given here. *: point of attachment. FITC = O=C1OC2(c3ccc(O)cc3Oc3cc(O)ccc32)c2ccc(NC(=S)*)cc21
Key:
[1] = system: glycogen synthase kinase-3; settings: cited from earlier work
From the text: (§1) By contrast, small-molecular kinase inhibitors or phosphatase enhancers generally lack specificity. […] This might bring unacceptable side-effects in the clinic. Importantly, the principle of DEPTAC can be used in future studies to design alternative chimeras specifically targeting many other types of post-tr ...

inositol monophosphatase = settings: cited from earlier work
From the text: as §1

tau = settings: cited from earlier work
From the text: as §1

human tau = experiment: Fluorescence polarization binding assay, tau; settings: 0.1 μM FITC-labeled DEPTAC; serial dilutions of tau; 20 mM Tris-HCl, 150 mM NaCl, 0.5 mM DTT, pH 7.4; 37 °C, 30 min
Protocol: (§2) Purified human tau and PP2A-Bα (PPP2R1A) were obtained from AtaGenix (Wuhan, China), and concentrated using ultrafiltration tubes (Beyotime). In basic binding assays, tau or PP2A-Bα was aliquoted into serial dilutions with a buffer containing 20 mM Tris-HCl, 150 mM NaCl, and 0.5 mM 1,4-Dithiothreitol (pH 7.4), and incubated with 0.1 μM FITC-labeled DEPTAC, FITC-labeled control peptide and FITC (9:1 vol/vol), respectively, in a black 384-well plates (Corning) under 37 °C for 30 min. In competition binding assays, a mixture of 2.5 μM tau or PP2A-Bα and 0.1 μM FITC-labeled DEPTAC were incubated with increasing amounts of unlabeled-DEPTAC under 37 °C for 30 min. Fluorescence intensity was measured by a Biotek Synergy 2 microplate reader with the wavelengths of 480 nm (60) (Ex)/560 nm (40) (Em). The polarization measurements were corrected for background contributions to the measured intensity by subtracting the parallel and perpendicular intensity readings by the vehicle-only wells from the intensity readings for each data point. Fluorescence polarization (P) was calculated by the formula P = (I║ − I┴) / (I║ + I┴), where I║ was the intensity of emitted light polarized parallel to the excitation light, and I┴ was the intensity of emitted light polarized perpendicular to the excitation light.

PP2A-Bα (PPP2R1A) = experiment: Fluorescence polarization binding assay, PP2A-Bα; set-up: species or system human; settings: 0.1 μM FITC-labeled DEPTAC; serial dilutions of PP2A-Bα; 20 mM Tris-HCl, 150 mM NaCl, 0.5 mM DTT, pH 7.4; 37 °C, 30 min
Protocol: as §2

| Compound | action on glycogen synthase kinase-3 [1] | action on inositol monophosphatase (inositol monophosphatase) | suppression of tau hyperphosphorylation (tau) | FITC-DEPTAC fluorescence polarization with increased amount of tau (human tau) | FITC-DEPTAC fluorescence polarization with increased amount of PP2A-Bα (PP2A-Bα (PPP2R1A)) |
| --- | --- | --- | --- | --- | --- |
| [Li] [lithium] | acts on other targets | acts on other targets | suppress tau hyperphosphorylation |  |  |
| FITC-DEPTAC: For tracing the chimera, a fluorescein FITC was conjugated at the K18 residue (YQQYQDATADEQGGSGSK(FITC)KVAVVRTPPKSPRRRRRRRR) |  |  |  | sigmoidal increases | sigmoidal increases |

From publication PMC8280143, “A novel dephosphorylation targeting chimera selectively promoting tau removal in tauopathies” (Signal Transduction and Targeted Therapy, 2021)
